Laboratory results taken from ChEMBL document CHEMBL3632583, “Haenamindole, an unusual diketopiperazine derivative from a marine-derived Penicillium sp. KCB12F005” (Bioorg Med Chem Lett, 2015).
pIC50: −log10 of the molar value. The source made the active and inactive calls. The rule behind the calls is not given here.

Columns and labels:
Bacillus cereus = experiment: Antimicrobial activity against Bacillus cereus at 50 ug/disk after 48 hrs by paper disk method; assay type: functional, organism-based
HL-60 = experiment: Cytotoxicity against human HL60 cells after 96 hrs by WST method; assay type: functional, cell-based; conditions: HL-60, 96 h
Salmonella enteritidis = experiment: Antimicrobial activity against Salmonella enteritidis at 50 ug/disk after 48 hrs by paper disk method; assay type: functional, organism-based; conditions: Salmonella enterica subsp. enterica serovar Enteritidis
Staphylococcus aureus = experiment: Antimicrobial activity against Staphylococcus aureus at 50 ug/disk after 48 hrs by paper disk method; assay type: functional, organism-based
K562 = experiment: Cytotoxicity against human K562 cells after 96 hrs by WST method; assay type: functional, cell-based; conditions: K562, 96 h
[1] = Cytotoxicity against human Hep3B cells after 96 hrs by WST method; assay type: functional, cell-based, Hep 3B2
HeLa = experiment: Cytotoxicity against human HeLa cells after 96 hrs by WST method; assay type: functional, cell-based
Escherichia coli = experiment: Antimicrobial activity against Escherichia coli at 50 ug/disk after 48 hrs by paper disk method; assay type: functional, organism-based

Structure (SMILES): O=C1N[C@@H](Cc2ccccc2)C(=O)N(O)[C@@H]1C[C@]1(O)c2ccccc2N2C(=O)C[C@@H](c3ccccc3)N[C@H]21
- Activity (Bacillus cereus): inactive
- pIC50 (HL-60): < 4.07
- Activity (Salmonella enteritidis): inactive
- Activity (Staphylococcus aureus): inactive
- pIC50 (K562): < 4.07
- pIC50 [1]: < 4.07
- pIC50 (HeLa): < 4.07
- Activity (Escherichia coli): inactive
